Values joined by “and” are separate entries in the source; they are usually repeats but may differ in a detail not shown here. Equal entries are not always repeated. Where two headings read alike, the source gives them in different places.
How the values were obtained:
Type in all cases: cell-based
[1] = M2H viability counter screen; conditions: human, HEK 293 cells; cytotoxicity counter screen; read-out: M2H viability CS GI50
[2] = system: LNCaP cells; assay: Prostate cancer cell line growth inhibition assay, LNCaP; conditions: 72 h, read-out: LNCap GI50 (AR+)
Description: The PC-3, DU-145, LNCaP, C4–2, and 22Rv1 PC cell line growth inhibition assays have been described previously. On day 1, each PC cell line was harvested, counted, and seeded into two 384-well assay plates, a time zero (T0) and a time 72 h (T72) plate. PC cell lines were all seeded at 1000 cells per well in 45 μL of tissue culture media in uncoated white clear bottom 384-well assay plates (VWR, # 82050–076) using a Matrix electronic multichannel pipette (Thermo Fisher Scientific, Waltham, MA) and cultured overnight at 37 °C, 5% CO2, and 95% humidity. On day 2, 25 μL of the Cell Titer Glo (CTG) (Promega Corporation, Madison, WI) detection reagent was dispensed into the wells of the T0 assay plate using a Matrix electronic multichannel pipette, and the RLUs were captured on the SpectraMax M5e (Molecular Devices LLC, Sunnyvale, CA) microtiter plate reader. Also on day 2, 5 μL of compounds were transferred into the test wells of the T72 384-well assay plates which were returned to the incubator for 72 h. Control wells received DMSO alone. On day 5, 25 μL of the CTG detection reagent was dispensed into the wells of the T72 assay plate using a Matrix electronic multichannel pipette, and the RLU’s were captured on the SpectraMax M5e microtiter plate reader platform.
In 384-well assays, DMSO minimum (n = 32) and maximum (n = 32) plate control wells were utilized to calculate signal-to-background ratios (S:B) and Z’-factor coefficient assay performance quality control statistics, and to normalize the signals of compound treated wells and to represent 0% and 100% respectively. For the 96-well AR-LBD H^3-DHT radioligand binding assay, eight minimum and maximum plate control wells were utilized to normalize the data. For the PC cell line growth inhibition assays we used the DMSO control data from the T0 and T72 assay plates to assess the dynamic range of the T0 to T72 cell growth, and to calculate S:B ratios and Z’-factor coefficient statistics for the assay signal window (T0 to T72). To normalize the 72 h compound exposure PC growth inhibition data, the signals from the compound treated wells were processed and expressed as% of the T72 DMSO plate controls. IC50 and GI50 values for each of the bioassays were calculated using Graph-Pad Prism 9 software to plot and fit data to curves using the Sigmoidal dose response variable slope equation Y = Bottom + [Top-Bottom]/ [1 + 10^^(LogEC50-X)*HillSlope].

[3] = biological target: T1, full length AR (Homo sapiens, UniProt P10275, T878A); assay: PSA-6.1 luciferase reporter assay in C4–2 CRPC cells; conditions: C4–2 cells; 50 nM DHT; 24 h; read-out: C4–2 PSA6.1-Luc Reporter IC50
T1 construct: DHT-induced full length AR directed TA; endogenous in cells; host or cells: C4–2 castration resistant prostate cancer cells
T1 sequence (P10275 1-920 T878A): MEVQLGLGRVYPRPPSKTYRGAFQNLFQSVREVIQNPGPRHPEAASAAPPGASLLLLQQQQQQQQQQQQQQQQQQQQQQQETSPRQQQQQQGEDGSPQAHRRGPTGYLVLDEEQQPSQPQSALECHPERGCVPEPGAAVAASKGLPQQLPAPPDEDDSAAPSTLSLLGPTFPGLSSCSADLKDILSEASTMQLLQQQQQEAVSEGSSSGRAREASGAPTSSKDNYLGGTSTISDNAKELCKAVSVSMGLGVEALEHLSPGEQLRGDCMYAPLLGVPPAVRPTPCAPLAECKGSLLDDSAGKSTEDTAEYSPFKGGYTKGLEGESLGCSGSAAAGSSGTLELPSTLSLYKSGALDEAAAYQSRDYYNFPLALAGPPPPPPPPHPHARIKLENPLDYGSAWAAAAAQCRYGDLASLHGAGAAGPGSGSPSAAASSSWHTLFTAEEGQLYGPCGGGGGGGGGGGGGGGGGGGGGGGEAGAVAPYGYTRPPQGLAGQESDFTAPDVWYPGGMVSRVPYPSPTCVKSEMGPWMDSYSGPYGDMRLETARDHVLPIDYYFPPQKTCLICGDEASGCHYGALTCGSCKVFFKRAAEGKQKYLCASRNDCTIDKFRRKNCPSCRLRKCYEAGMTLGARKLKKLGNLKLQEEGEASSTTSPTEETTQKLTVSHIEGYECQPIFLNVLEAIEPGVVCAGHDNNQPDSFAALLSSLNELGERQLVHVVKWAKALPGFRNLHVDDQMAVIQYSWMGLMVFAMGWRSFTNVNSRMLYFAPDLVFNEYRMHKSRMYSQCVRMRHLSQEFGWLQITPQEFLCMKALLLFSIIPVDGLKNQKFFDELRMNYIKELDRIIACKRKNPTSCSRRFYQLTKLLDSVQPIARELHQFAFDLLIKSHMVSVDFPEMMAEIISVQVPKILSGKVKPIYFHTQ
Description: The PSA-6.1-Luc luciferase reporter plasmid was provided by Dr. Zhou Wang in the Urology department of the University of Pittsburgh Cancer Institute. The PSA-6.1-Luc reporter is controlled by a fragment of the PSA promoter that contains at least three AREs. The PSA-6.1-Luc plasmid (12 ng/well) was combined with Fugene 6 at a ratio 6:1 in SFM and incubated for 25 min at room temperature before being combined with C4–2 cells suspended in RPMI 1640 media containing 1% penicillin-streptomycin, 1% L-glutamine, and 10% FBS. Transfected cells were then seeded into white opaque 384-well assay plates (Greiner Bio-one, #781080) at 6000 cells per well in a volume of 30 μL and incubated in 5% CO2, 37 °C, and 95% humidity for 24 h.

Row | SMILES | GI50 [1] | GI50 ([2]; Homo sapiens, LNCaP) | IC50 [3] | GI50 [2]
1 | Cc1ccccc1-c1cc(O)c2c(c1)CN(c1nc(C(N)=O)cs1)CCO2 [S1–1] | 58.6 µM | 28.9 µM | 17.1 µM | 
2 | Cc1ccccc1-c1cc(O)c2c(c1)CN(c1nccs1)CCO2 [S1–3] |  |  | 29.7 µM | 43.4 µM
3 | Cc1nsc(NC(=O)N2CCC(Sc3ccccc3C)CC2)n1 [S2–6] | > 100 µM | 19.2 µM | 2 µM and 2.3 µM | 
4 | Cc1c(-c2ccccc2F)[nH]c2ccc(CNC(=O)CCc3cn[nH]c3)cc12 [S3–11] | 69.2 µM | 7.41 µM | 9 µM | 
5 | Cc1c(-c2ccccc2F)[nH]c2ccc(CNC(=O)CCc3cnccn3)cc12 [S3–12] | > 100 µM | 1.92 µM | 7.7 µM | 
6 | CC(=O)NCCC(=O)NCc1ccc2[nH]c(-c3ccccc3F)c(C)c2c1 [S3–13] | > 100 µM | 67.2 µM | 58.5 µM | 
7 | Cc1c(-c2ccccc2F)[nH]c2ccc(CNC(=O)c3ccc(CO)o3)cc12 [S3–14] | > 100 µM | 31.1 µM | 10.8 µM | 
8 | Cc1c(-c2ccc(F)cc2)[nH]c2ccc(CNC(=O)c3ccc(CO)o3)cc12 [S3–15] | > 100 µM | 14 µM | 7 µM | 
